The numbers were not newly measured in article PMC4324444 (ACS Chemical Biology, 2014), which cites them from elsewhere.

The data set concerns the target XIAP. The conditions noted are these: read-out: binding affinity to XIAP (Ki).

With `CN[C@@H](C)C(=O)N[C@H](C(=O)N1CC[C@H](C)[C@H]1C(=O)Nc1ccccc1-c1ncccn1)C1CCCCC1` [CS3], the inhibitory constant (Ki) is greater than 30 µM.
